Experimental data as given in patent publication US20090280549A1, “Method for Treating Body Fluid” (priority 2005, published 2009).

What was measured:
Format in all cases: cell-based, human
[1] = system: THP-1 cells (activated macrophages) stimulated with PMA; test: ATX-S10•Na(II) uptake into THP-1 cells stimulated with PMA
Procedure: (§1) After labeling the compound represented by formula (II) above (hereinafter referred to as “ATX-S10•Na(II)”) with ^14C, the ATX-S10•Na(II) was dissolved in saline at a concentration of approximately 1×10^−3 mol/L, and the solution was filtered and sterilized with a 0.22 μm filter and then diluted with 1% FBS (fetal bovine serum)-containing RPMI1640 medium to prepare a 5×10^−5 mol/L ATX-S10•Na(II)-added solution.
As malignant lymphoma cells and leukemia cells, there were used THP-1 cells (human monocytic leukemia cells), EoL-1 cells (human eosinophilic leukemia cells), A3/KAW cells (human malignant lymphoma cells) and KG-1 cells (human acute myeloid leukemia cells). All of the cells were cultured using 10% FBS-containing RPMI1640 medium, with subculturing 1 to 2 times per week during the culturing. The THP-1 cells and EoL-1 cells were obtained from RIKEN BioResource Center, and the A3/KAW cells and KG-1 cells were obtained from Japan Health Sciences Foundation.
(§2) After adding 400 μL of the cell suspension and 100 μL of the ATX-S10•Na(II)-added solution to each well of a 48-well microplate and mixing, the mixtures were incubated with a CO2 incubator (37° C., 5% CO2) or allowed to stand in a refrigerating chamber (approximately 4° C.). The cells were separated immediately after addition (0 hours after addition) and 1 hour, 3 hours, 20 hours and 44 hours after addition, and ATX-S10•Na(II) uptake into the cells (including cell surface binding) was measured. The uptake with standing at 4° C. corresponds to cell surface binding, and the value of the uptake with incubation at 37° C. minus the uptake with standing at 4° C. is presumed to correspond to the substantial ATX-S 10 Na(II) uptake for each type of cell.
(§3) The cell separation and uptake measurement were performed in the following manner. Specifically, 1 mL of 1.5% BSA (bovine serum albumin)-containing PBS solution (ice-cold) was placed in a 1.5 mL tube. The suspension of cells to be separated was gently pipetted and mixed, and a 100 μL portion was taken and superposed onto the 1.5% BSA-containing PBS solution. For each well, the cell suspension (300 μL) was dispensed into three tubes (n=3). After centrifugation (3200 rpm, 10 minutes, 4° C.), the medium and 1.5% BSA-containing PBS solution were removed by suction, and then the precipitate was suspended in 100 μL of PBS(−), and 1 mL of PBS(−) was further added and mixed therewith. After additional centrifugation (3000 rpm, 10 minutes, 4° C.), the supernatant was removed by suction, and the bottom of the tube, where the precipitate is present, was cut out and transferred to a counting vial. Then 4.5 mL of liquid scintillator was added and mixed therewith, and the radioactivity was measured for 5 minutes using a liquid scintillation counter. The measured radioactivity was used to calculate the ATX-S10•Na(II) uptake (pmol/10^5 cells) into the cells.
Uptake into THP-1 cells was measured also with stimulation of the cells for approximately 24 hours with PMA (2 nmol/L, 5 nmol/L or 15 nmol/L) and addition of ATX-S10•Na(II) to the cell suspension immediately after removal of the PMA. THP-1 cells differentiate into macrophages upon stimulation with PMA.

lymphocytes = test: ATX-S10•Na(II) uptake into lymphocytes
Procedure: as §1
(§4) Erythrocytes, platelets, neutrophils and lymphocytes were prepared from blood sampled from three healthy persons (designated as A, B and C).
The erythrocytes, neutrophils and lymphocytes were prepared from heparinized blood. […]
as §2, with “The uptake with standing at 4° C. corresponds to cell surface binding, and the value of the uptake with incubation at 37° C. minus the uptake with standing at 4° C. is presumed to correspond to the substantial ATX-S 10 Na(II) uptake for each type of cell.” left out
The cell separation and uptake measurement were performed in the following manner. […] Then 4.5 mL of liquid scintillator was added and mixed therewith, and the radioactivity was measured for 5 minutes using a liquid scintillation counter. […]

neutrophils = test: ATX-S10•Na(II) uptake into neutrophils
Procedure: as §1, §4
The erythrocytes, neutrophils and lymphocytes were prepared from heparinized blood. The heparinized blood and 6% dextran-added saline were mixed in a proportion of 3:1 (v:v), and the mixture was allowed to stand at room temperature for 30 minutes. The upper layer leukocyte fraction was centrifuged with a centrifuge tube (900 rpm, 10 minutes, 4° C.), and the precipitate was suspended in saline, superposed onto Ficoll-Hypaque® solution and centrifuged (1600 rpm, 30 minutes, room temperature). The intermediate layer was used as the lymphocyte fraction (containing monocytes) and the precipitate was used as the neutrophil fraction. The neutrophil fraction was suspended in ice-cold 0.2% NaCl solution for hemolysis, and then an equivalent amount of ice-cold 1.6% NaCl solution was immediately added to restore isotonicity. The crude erythrocyte fraction was diluted with KRP (Krebs-Ringer phosphate buffer) and centrifuged (2000 rpm, 5 minutes, 4° C.), and the buffy coat (leukocyte layer) was removed. This procedure was further repeated 4 times to yield the erythrocyte fraction.
as §2, §3
Uptake into neutrophils was measured also with addition of N-formyl-L-methionyl-L-leucyl-L-phenylalanine (hereinafter referred to as “fMLP”) (final concentration: 1×10^−7 mol/L or 1×10^−6 mol/L) or phorbol 12-myristate 13-acetate (hereinafter referred to as “PMA”) (final concentration: 1×10^−7 mol/L) to the cell suspension together with ATX-S10•Na(II).

## C=Cc1c(C)c2cc3nc(cc4[nH]c(cc5nc(cc1[nH]2)C(C)=C5CCC(=O)NC(CC(=O)[O-])C(=O)[O-])c(CCC(=O)NC(CC(=O)[O-])C(=O)[O-])c4C)C(C)(O)/C3=C\C=NO.[Na+].[Na+].[Na+].[Na+] (centres unmarked) [ATX-S10•Na(II)]
[1]; THP-1 cells (activated macrophages) stimulated with PMA for 24 hours
  uptake compared with unstimulated cells: higher than without stimulation with PMA
[1]; THP-1 stimulated with 2 nmol/L PMA, 0 hr, immediately after addition
  ATX-S10•Na(II) uptake: 1.66 pmol/10^5 cells
[1]; THP-1 stimulated with 2 nmol/L PMA, 3 hr, incubation at 37° C.
  ATX-S10•Na(II) uptake: 6.66 pmol/10^5 cells
[1]; THP-1 stimulated with 2 nmol/L PMA, 3 hr, standing at 4° C.
  ATX-S10•Na(II) uptake: 7.05 pmol/10^5 cells
[1]; THP-1 stimulated with 2 nmol/L PMA, 20 hr, incubation at 37° C.
  ATX-S10•Na(II) uptake: 11.75 pmol/10^5 cells
[1]; THP-1 stimulated with 2 nmol/L PMA, 20 hr, standing at 4° C.
  ATX-S10•Na(II) uptake: 5.32 pmol/10^5 cells
[1]; THP-1 stimulated with 5 nmol/L PMA, 0 hr, immediately after addition
  ATX-S10•Na(II) uptake: 2.07 pmol/10^5 cells
[1]; THP-1 stimulated with 5 nmol/L PMA, 3 hr, incubation at 37° C.
  ATX-S10•Na(II) uptake: 11.37 pmol/10^5 cells
[1]; THP-1 stimulated with 5 nmol/L PMA, 3 hr, standing at 4° C.
  ATX-S10•Na(II) uptake: 8.48 pmol/10^5 cells
[1]; THP-1 stimulated with 5 nmol/L PMA, 20 hr, incubation at 37° C.
  ATX-S10•Na(II) uptake: 16.06 pmol/10^5 cells
[1]; THP-1 stimulated with 5 nmol/L PMA, 20 hr, standing at 4° C.
  ATX-S10•Na(II) uptake: 7.53 pmol/10^5 cells
[1]; THP-1 stimulated with 15 nmol/L PMA, 0 hr, immediately after addition
  ATX-S10•Na(II) uptake: 2.93 pmol/10^5 cells
[1]; THP-1 stimulated with 15 nmol/L PMA, 3 hr, incubation at 37° C.
  ATX-S10•Na(II) uptake: 18.31 pmol/10^5 cells
[1]; THP-1 stimulated with 15 nmol/L PMA, 3 hr, standing at 4° C.
  ATX-S10•Na(II) uptake: 12.74 pmol/10^5 cells
[1]; THP-1 stimulated with 15 nmol/L PMA, 20 hr, incubation at 37° C.
  ATX-S10•Na(II) uptake: 19.95 pmol/10^5 cells
[1]; THP-1 stimulated with 15 nmol/L PMA, 20 hr, standing at 4° C.
  ATX-S10•Na(II) uptake: 9.13 pmol/10^5 cells
lymphocytes; lymphocytes versus EoL-1, THP-1 and A3/KAW cells
  uptake compared between cell types: higher than EoL-1 cells, although not as high as THP-1 cells or A3/KAW cells
lymphocytes; lymphocytes, course over incubation time
  substantial uptake of ATX-S10•Na(II) (uptake at 37° C. minus uptake at 4° C.): increased with incubation time
neutrophils; Neutrophil (A), donor A, 0 hr, immediately after addition
  ATX-S10•Na(II) uptake: 0.21 pmol/10^5 cells
neutrophils; Neutrophil (A), 3 hr, incubation at 37° C.
  ATX-S10•Na(II) uptake: 0.38 pmol/10^5 cells
neutrophils; Neutrophil (A), 3 hr, standing at 4° C.
  ATX-S10•Na(II) uptake: 0.46 pmol/10^5 cells
neutrophils; Neutrophil (A), 20 hr, incubation at 37° C.
  ATX-S10•Na(II) uptake: 4.93 pmol/10^5 cells
neutrophils; Neutrophil (A), 20 hr, standing at 4° C.
  ATX-S10•Na(II) uptake: 0.57 pmol/10^5 cells
neutrophils; Neutrophil (B), 3 hr, incubation at 37° C.
  ATX-S10•Na(II) uptake: 0.40 pmol/10^5 cells
neutrophils; Neutrophil (B), 3 hr, standing at 4° C.
  ATX-S10•Na(II) uptake: 1.27 pmol/10^5 cells
neutrophils; Neutrophil (B), 20 hr, incubation at 37° C.
  ATX-S10•Na(II) uptake: 4.04 pmol/10^5 cells
neutrophils; Neutrophil (B), 20 hr, standing at 4° C.
  ATX-S10•Na(II) uptake: 0.47 pmol/10^5 cells
neutrophils; Neutrophil (B), 44 hr, incubation at 37° C.
  ATX-S10•Na(II) uptake: 16.32 pmol/10^5 cells
neutrophils; Neutrophil (B), 44 hr, standing at 4° C.
  ATX-S10•Na(II) uptake: 0.68 pmol/10^5 cells
neutrophils; Neutrophil (C), 3 hr, incubation at 37° C.
  ATX-S10•Na(II) uptake: 0.72 pmol/10^5 cells
neutrophils; Neutrophil (C), 3 hr, standing at 4° C.
  ATX-S10•Na(II) uptake: 0.36 pmol/10^5 cells
neutrophils; Neutrophil (C), 20 hr, incubation at 37° C.
  ATX-S10•Na(II) uptake: 10.13 pmol/10^5 cells
neutrophils; Neutrophil (C), 20 hr, standing at 4° C.
  ATX-S10•Na(II) uptake: 0.95 pmol/10^5 cells
neutrophils; Neutrophil stimulated with 1×10^−6 mol/L fMLP, 3 hr, incubation at 37° C.
  ATX-S10•Na(II) uptake: 0.75 pmol/10^5 cells
neutrophils; Neutrophil stimulated with 1×10^−6 mol/L fMLP, 3 hr, standing at 4° C.
  ATX-S10•Na(II) uptake: 2.02 pmol/10^5 cells
neutrophils; Neutrophil stimulated with 1×10^−6 mol/L fMLP, 20 hr, incubation at 37° C.
  ATX-S10•Na(II) uptake: 3.57 pmol/10^5 cells
neutrophils; Neutrophil stimulated with 1×10^−6 mol/L fMLP, 20 hr, standing at 4° C.
  ATX-S10•Na(II) uptake: 0.57 pmol/10^5 cells
neutrophils; Neutrophil stimulated with 1×10^−6 mol/L fMLP, 44 hr, incubation at 37° C.
  ATX-S10•Na(II) uptake: 14.14 pmol/10^5 cells
neutrophils; Neutrophil stimulated with 1×10^−6 mol/L fMLP, 44 hr, standing at 4° C.
  ATX-S10•Na(II) uptake: 3.28 pmol/10^5 cells
neutrophils; Neutrophil stimulated with 1×10^−7 mol/L PMA, 3 hr, incubation at 37° C.
  ATX-S10•Na(II) uptake: 4.45 pmol/10^5 cells
neutrophils; Neutrophil stimulated with 1×10^−7 mol/L PMA, 3 hr, standing at 4° C.
  ATX-S10•Na(II) uptake: 2.76 pmol/10^5 cells
neutrophils; Neutrophil stimulated with 1×10^−7 mol/L PMA, 20 hr, incubation at 37° C.
  ATX-S10•Na(II) uptake: 7.33 pmol/10^5 cells
neutrophils; Neutrophil stimulated with 1×10^−7 mol/L PMA, 20 hr, standing at 4° C.
  ATX-S10•Na(II) uptake: 1.09 pmol/10^5 cells
neutrophils; Neutrophil stimulated with 1×10^−7 mol/L fMLP, 3 hr, incubation at 37° C.
  ATX-S10•Na(II) uptake: 0.79 pmol/10^5 cells
neutrophils; Neutrophil stimulated with 1×10^−7 mol/L fMLP, 3 hr, standing at 4° C.
  ATX-S10•Na(II) uptake: 0.97 pmol/10^5 cells
neutrophils; Neutrophil stimulated with 1×10^−7 mol/L fMLP, 20 hr, incubation at 37° C.
  ATX-S10•Na(II) uptake: 2.67 pmol/10^5 cells
neutrophils; Neutrophil stimulated with 1×10^−7 mol/L fMLP, 20 hr, standing at 4° C.
  ATX-S10•Na(II) uptake: 0.50 pmol/10^5 cells
neutrophils; neutrophils after stimulation with WILP or PMA
  uptake after stimulation compared with unstimulated cells: no increase in uptake
neutrophils; neutrophils versus EoL-1, THP-1 and A3/KAW cells
  uptake compared between cell types: higher than EoL-1 cells, although not as high as THP-1 cells or A3/KAW cells
neutrophils; neutrophils, course over incubation time
  substantial uptake of ATX-S10•Na(II) (uptake at 37° C. minus uptake at 4° C.): increased with incubation time
